How the values were obtained:
CD44 and GLUT1 = experiment: Confocal microscopy of CD44 and GLUT-1 in residual tumors, orthotopic syngeneic mammary carcinoma model (4T-1); format: in vivo, mice; settings: 72 hours after docetaxel at MTD (10 mg/kg i.v.) vs vehicle
Procedure: 1 million 4T-1 mouse mammary carcinoma cells suspended in 100 μL PBS were injected per left flank of 5-6 week old Balb/C (heterotopic) or mammary fat pad (orthotopic). Docetaxel (DTX) was dissolved in pure Ethanol at a concentration of 50 mg/ml mixed 1:1 with Polysorbate 80 (Tween 80) and brought to a final working concentration with PBS. Tumor volumes were assessed by the following formula: (Width×Width×length)/2 and values were utilized to calculate tumor specific growth rate (SGR) by the algorhythm (ln [V2/V1]/[t2−t1)] where V=volume and t=time in days^64. For in vivo analysis of 2-NBDG uptake, mice were treated as indicated (i.e. Docetaxel intratumoral or intravenously) and monitored until tumors reached ˜300 mm^3. Subsequently, mice were administered a 10 mg/kg i.v. injection of 2-NBDG 2 hours prior to sacrificing and harvesting tumors for confocal microscopic analysis by frozen section (described below). […] Glucose quantitation (mg/dL) was measured using the onetouch lifescan glucose monitor (Life Scan, Inc. Militipas, Calif.) by calculating mg of glucose per volume of tissue homogenate (in PBS) and normalized as a ratio of mg/dL of glucose to mg of tissue homogenized. Typically, >250 mg of tissue was homogenized in 50 μL of PBS to achieve a readable output. […]

MDA-MB-231 parent or DTC = experiment: Glucose uptake (2-NBDG) determined by FACS; format: cell-based; settings: sub-lethal docetaxel (25 nM), MDA-MB-231
Procedure: MDA-MB-231 (ATCC), MDA-MB-468 and 4T-1 mammary carcinoma cells (ATCC) were cultured in DMEM containing 10% Fetal Bovine Serum (FBS) at 37 C and 5% CO2. DU145 and DU145-TxR were provided by A. Mizokami^63 and cultured in DMEM containing 10% FBS, resistant line included 100 nM paclitaxel in the culture media. During treatments with chemotherapeutics, cells were grown to semi-confluence and treated with indicated concentrations of chemotherapy in serum-containing medium for indicated time points. When small molecule inhibitors were included in treatments, they were added simultaneously with chemotherapy. For siRNA gene knockdown, cells were transfected with silencer-select siRNA plasmids (Ambion, Invitrogen, Grand Island, N.Y.) pan-CD44(1) (s2682) panCD44(2) (s2681), siHIF1A (s6539) using lipofectamine 2000 (Invitrogen, Carlsbad Calif.) following manufacturer protocol and cultured for 72 hours prior to treatment. Scrambled siRNA was used as a control. For chemotherapy treatment experiments: Cancer cells were plated at a density of 0.5-1×10^5 cells/ml and allowed to adhere for 24-48 hr. When cells reached ˜70% confluency they were treated with cytotoxics at indicated concentrations for 24-48 hours and utilized for subsequent assays. For experiments in which a shorter incubation was used (i.e. 15 min-4 hours) fresh media was added 24 hours prior to addition of chemotherapy suspended to stock concentration in PBS. For generation of DTC: Cells were treated for 48 hours with chemotherapy. Following washes with PBS, adherent cells were trypsinized and re-plated at a density of 1.5-2×10^5 cells/ml and cultured in serum-containing medium. After 24 hours incubation, floating cells were removed and remaining cells were washed with 1× PBS and considered as chemotherapy-tolerant cells. A population of drug naïve parent cells were always cultured alongside DTC and fresh media was added at every interval that experimental population (DTC) received fresh media.
In vitro detection of glucose uptake was performed using 2-(N-7-Nitrobenz-2-oxa-1,3-diazol-4-yl)Amino)-2-Deoxyglucose (2-NBDG) (Invitrogen, Carlsbad Calif.), dissolved in DMSO to 50 mM. Cells were pre-treated with kinase inhibitors or vehicle for 3 hours in glucose- and phenol red-free media before addition of 50 μM 2-NBDG and subsequently read by FACS ex/em 488/535 nm. ROS was determined by pre-loading cells with CM-DCFDA (1 μM), washed 2 times with PBS and subsequently treated with H2O2 or vehicle; when kinase inhibitors were included in treatment, cells were first incubated with inhibitor for 3 hours prior to CM-DCFDA loading. Fluorescence was then determined by FACS ex/em 488/535 nm. For the following assays, cells were trypsinized and counted by Nexcelom cell counter (Lawrence, Mass.) prior to being subjected to analysis in order to achieve a quantitative value per cell: Reduced glutathione was determined using a colorimetric glutathione recycling system by DTNB following manufacturer protocol (Biovision, Milpitas Calif.). ATP analysis was performed using the ATP colorimetric analysis kit (Biovision) according to manufacturer protocol. Reductive stress was detected using the Enzo nitroreductase hypoxia kit (Enzo Life Sciences, Ann Arbor Mich.) following manufacturer protocol and visualized by fluorescent microscopy; a set of non-docetaxel-treated control cells loaded with fluorescent probe were compared against docetaxel-treated cells to derive a % redox stress increase which was calculated as fluorescence intensity of nitroreductase probe per cell and expressed as increase from vehicle. Protein synthesis was measured by two means 1. L-azidohomoalanine amino acid analog of methionine containing an azide moiety was added to cultured cells (parent or DTC) for 3 hours which is incorporated into proteins during active protein synthesis. […]

CD44v6 and EGFR = experiment: CD44/CD44v6-EGFR immunocomplex by immunoprecipitation and western blot; format: cell-based; settings: MDA-MB-231 cells; docetaxel sublethal dose (10 nM), with or without erlotinib
Procedure: Laemli sample buffer was prepared as a 5× solution containing □-mercaptoethanol as a reducing agent. Immunoprecipitaion was performed using both classic and direct IP kits purchased from Pierce following manufacturer protocols (Thermo Fisher inc. Rockford, Ill.). Briefly, cell lysates were prepared using IP/Lysis Buffer (Thermo Fisher inc. Rockford, Ill.) in the presence of 2× HALT protease/phosphatase inhibitor cocktail (Thermo Fisher inc. Rockford, Ill.). […] Direct immunoprecipitation was performed following manufacturer protocol. […] Protein samples were resolved by SDS-PAGE and transferred to PVDF membranes prior to incubation at 4 C with indicated primary antibodies; NHE-1, GLUT-1 and cytoplasmic domain-targeting EGFR were purchased from Santa Cruz Biotech (Santa Cruz, Calif.). p70S6K and pp70S6K, mTOR and pMTOR, pERM and ERM, Ezrin and pEzrin, pAKT and AKT, pPRAS40 and PRAS40, EGFR and pEGFR antibodies cleaved caspase-3 and β-Actin were purchased from cell signaling technology (Cambridge, Mass.). EGFR and CD44v6 neutralizing antibodies were purchased from R&D (Minneapolis, Minn.). […] Optical densities of western blots were measured using ImageJ open source software (National Institutes of Health) and validated using Adobe CS5.

CC(=O)O[C@@]12CO[C@@H]1C[C@H](O)[C@@]1(C)C(=O)[C@H](O)C3=C(C)[C@@H](OC(=O)[C@H](O)[C@@H](NC(=O)OC(C)(C)C)c4ccccc4)C[C@@](O)([C@@H](OC(=O)c4ccccc4)[C@H]21)C3(C)C [docetaxel]
expression of CD44 and GLUT1 in residual tumors (CD44 and GLUT1): enhanced expression of both CD44 and GLUT1 | time point at which augmented glucose uptake was observed (MDA-MB-231 parent or DTC): 24 h | immunocomplex between CD44v6 and EGFR (CD44v6 and EGFR): induced

Reference: patent publication US10300070B2, “Metabolically-activated drug conjugates to overcome resistance in cancer therapy” (The Brigham and Women's Hospital, Inc., priority 2014, dated 2019)
